Experimental data as given in patent US20260374766A1, “METHODS FOR TREATING CANCER” (Antares Therapeutics, Inc., priority 2022, published 2026).
Like-named read-outs stand apart in the source and are kept apart here.

What was measured:
p53 Y220C = p53 Y220C (Homo sapiens, UniProt P04637, Y220C); assay: Luciferase Reporter Assay (Luc), p53 response element, NClH1299 cells with inducible p53 Y220C; type: cell-based; conditions: 6 hour; for AC50: read-out: Luc P53 Y220C AC50
Experimental: Luciferase Reporter Assay Protocol
The cells were then used for p53 reporter assay. 5,000 cells were seeded in each well of 384 plate and cultured in 0.5 ug/mL doxycycline (D3072; Sigma) containing medium for 24 hours before compound treatment. After 6 hour of compound treatment, equal volume of One-Glo reagent (E6110; Promega) was added to each well and the plate was incubated for 5 minutes with shaking at room temperature. The luciferase activity was immediately measured with PheraStar microplate reader.

H1299 p53 Y220C = assay: Cell Proliferation Assay (CellTiter-Glo, CTG), H1299 p53 Y220C (NClH1299-inducible p53 Y220C); type: cell-based; conditions: Homo sapiens, NCI-H1299, 120 h, NClH1299-inducible p53 Y220C cells, 5 days
Experimental: (§1) Inducible p53 Y220C and R273H constructs (Tet-One inducible expression system; Takara) were stably expressed in NClH1299 cells by lentiviral transduction. NUGC3, A549, BxPC3, T3M4, HuH7, HCC2935, MFE296, NClH1299, NClH1299-inducible p53 Y220C, and NClH1299-inducible p53 R273H cell lines were used for cell proliferation assay. 250-500 cells were seeded in each well of 384 plate and then compounds were dispensed into each well using Echo or Tecan. After 5 days of incubation, equal volume of CellTiter-Glo reagent (G7570; Promega) was added into each well and the plate was incubated at room temperature for 10 minutes with shaking. The luminescent signal was measured by PheraStar microplate reader and IC50 was calculated.

[1] = target: T1, p53 Y220C mutant protein (amino acid residues 94-293) (Homo sapiens, UniProt P04637, Y220C); assay: Surface Plasmon Resonance (SPR) assay, Kd_kinetic; type: binding; conditions: SPR, p53 Y220C, read-out: SPR P53 Y220C KD kinetic
T1 construct: p53 Y220C mutant protein (amino acid residues 94-293)
T1 sequence (P04637 94-293, stated change not applied): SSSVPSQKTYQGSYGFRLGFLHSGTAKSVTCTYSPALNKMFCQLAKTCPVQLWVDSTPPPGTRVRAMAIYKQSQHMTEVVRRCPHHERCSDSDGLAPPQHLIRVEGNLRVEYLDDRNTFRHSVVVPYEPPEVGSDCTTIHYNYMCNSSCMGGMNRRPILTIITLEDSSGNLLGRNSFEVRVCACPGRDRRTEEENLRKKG
Experimental: Surface Plasmon Resonance (SPR) Assay Protocol
SPR experiments were performed on a Biacore 8K instrument. […] The running buffer contained 50 mM Tris, pH 7.5, 100 mM NaCl, 1 mM DTT, 0.01% Brij35, 0.05% Tween-20 and 1% DMSO. The assay temperature was maintained at 16 or 20 °C and data were fit into the 1:1 binding model using the Biacore Insight Evaluation software.

H1299 p53 R273H = assay: Cell Proliferation Assay (CellTiter-Glo, CTG), H1299 p53 R273H (NClH1299-inducible p53 R273H); type: cell-based; conditions: Homo sapiens, NCI-H1299, 120 h, CellTiter-Glo, 5 days
Experimental: as §1

NUGC3 p53 Y220C = assay: Cell Proliferation Assay (CellTiter-Glo, CTG), NUGC3 p53 Y220C; type: cell-based; conditions: Homo sapiens, NUGC-3, 120 h, NUGC3 cells, 5 days, CellTiter-Glo
Experimental: as §1

[2] = Emax, luciferase reporter, NClH1299 inducible p53 Y220C
[3] = AC50, NClH1299 cells with inducible p53 Y220C
[4] = Emax, NClH1299 cells with inducible p53 Y220C, 10 uM tool compound as positive control
[5] = luciferase reporter, NClH1299 inducible p53 Y220C, 10 uM tool compound as positive control
[6] = luciferase reporter, NClH1299 inducible p53 Y220C
[7] = AC50, luciferase reporter, NClH1299 inducible p53 Y220C

Emax (p53 Y220C; [2]) [%]	IC50 (H1299 p53 Y220C; CellTiter-Glo) [µM]	AC50 (p53 Y220C; [3]) [µM]	Emax (p53 Y220C; [4]) [%]	Kd [1] [µM]	AC50 (p53 Y220C; [7]) [µM]	SMILES	further results
80 to 90	< 0.75	–	–	–	–	CNC(=O)c1ccc(NCC#Cc2nc3c(N[C@@H]4C[C@@H]5COC[C@@H](N5)[C@@H]4F)cccn3c2SC(F)(F)F)c(OC)c1 (relative stereo) [Example 329]	–
–	–	< 0.75	> 90	< 0.01	–	[2H]C(C)(O)CNC(=O)c1ccc(NCC#Cc2cc3c(N[C@@H]4CCN(C)C[C@@H]4F)cccn3c2SC(F)(F)F)c(OC)c1 (single isomer, unassigned) [Example 487, 4-{[3-(8-{[(3S,4R)-3-fluoro-1-methylpiperidin-4-yl]amino}-3-[(trifluoromethyl)sulfanyl]indolizin-2-yl)prop-2-yn-1-yl]amino}-N-[(2R*)-2-hydroxy(2-^2H)propyl]-3-methoxybenzamide]	IC50 (H1299 p53 Y220C): < 0.75 µM
–	–	–	–	–	–	CNC(=O)c1ccc(NCC#Cc2nc3c(N[C@@H]4CCN(C)C[C@@H]4F)cccn3c2C(F)(F)C(F)(F)F)c(OC)c1 [Example 30, 4-{[3-(8-{[(3S,4R)-3-fluoro-1-methylpiperidin-4-yl]amino}-3-(1,1,2,2,2-pentafluoroethyl)imidazo[1,2-a]pyridin-2-yl)prop-2-yn-1-yl]amino}-3-methoxy-N-methylbenzamide]	Emax (p53 Y220C; [5]): > 90%; AC50 (p53 Y220C; [6]): > 3 µM; Kd ([1]; kinetic KD): 0.01 to 0.1 µM
–	–	–	–	–	–	COc1cc2c(cc1NCC#Cc1nc3c(N[C@@H]4CCN(C)C[C@@H]4F)cccn3c1CC(F)(F)F)CNC2=O [Example 95, 5-{[3-(8-{[(3S,4R)-3-fluoro-1-methylpiperidin-4-yl]amino}-3-(2,2,2-trifluoroethyl)imidazo[1,2-a]pyridin-2-yl)prop-2-yn-1-yl]amino}-6-methoxy-2,3-dihydroisoindol-1-one]	Kd ([1]; kinetic KD): < 0.01 µM
–	–	–	–	–	–	COc1ccc(C(=O)N(C)C)cc1NCC#Cc1nc2c(N[C@@H]3CCN(C)C[C@@H]3F)cccn2c1SC(F)(F)F [Example 143]	Emax (p53 Y220C; [5]): > 90%; AC50 (p53 Y220C; [6]): < 0.75 µM; Kd ([1]; kinetic KD): < 0.01 µM; IC50 (H1299 p53 R273H; H1299 p53 R273H): 5 to 8 µM
–	–	–	–	–	–	CNC(=O)c1cnc(OC)c(NCC#Cc2nc3c(N[C@@H]4CCN(C)C[C@@H]4F)cccn3c2SC(F)(F)F)n1 [Example 157]	Emax (p53 Y220C; [5]): 80 to 90%; AC50 (p53 Y220C; [6]): < 0.75 µM; Kd ([1]; kinetic KD): < 0.01 µM; IC50 (H1299 p53 R273H; H1299 p53 R273H): ≥ 10 µM
70 to 80	> 3	–	–	< 0.01	> 3	COc1cc(C(=O)NCC2CN(C)C2)ccc1NCC#Cc1nc2c(N[C@@H]3CCOC[C@@H]3F)cccn2c1SC(F)(F)F [Example 227]	–
70 to 80	0.75 to 1.5	–	–	< 0.01	0.75 to 1.5	CNC(=O)c1ccc(OCCN(C)C)c(NCC#Cc2nc3c(N[C@@H]4CCOC[C@@H]4F)cccn3c2SC(F)(F)F)c1 [Example 229]	–
80 to 90	< 0.75	–	–	< 0.01	< 0.75	CNC(=O)c1cc(NCC#Cc2nn3c(N[C@@H]4CCN(C)C[C@@H]4F)cccc3c2SC(F)(F)F)c(OC)cn1 [Example 271]	–
80 to 90	1.5 to 3	–	–	–	–	CNC(=O)c1ccc(NCC#Cc2nc3c(N[C@H]4C[C@H]5COC[C@H](N5)[C@H]4F)cccn3c2SC(F)(F)F)c(OC)c1 [Example 281]	–
–	–	–	–	–	–	CNC(=O)c1ccc(NCC#Cc2nc3c(N[C@H]4C[C@H]5COC[C@H](N5)[C@H]4F)cccn3c2SC(F)(F)F)c(OC)c1 [Example 282]	IC50 (H1299 p53 R273H; NClH1299-inducible p53 R273H cells): ≥ 10 µM; IC50 (NUGC3 p53 Y220C): < 0.75 µM
< 70	> 3	–	–	–	> 3	CNC(=O)c1cc(NCC#Cc2cc3c(N[C@@H]4CCN(C)C[C@@H]4F)cccn3c2SC(F)(F)F)n2ncnc2c1 [Example 361]	–
80 to 90	< 0.75	–	–	< 0.01	< 0.75	COc1cc(S(C)(=N)=O)ccc1NCC#Cc1cc2c(N[C@@H]3CCN(C)C[C@@H]3F)cccn2c1SC(F)(F)F (stereo partly drawn) [Example 374]	–
80 to 90	–	–	–	< 0.01	< 0.75	CNC(=O)c1ccc(NCC#Cc2cc3c(N[C@@H]4CCN(C)C[C@@H]4F)cccn3c2SC(F)(F)F)c(O[C@H]2C[C@H](O)C2)c1 [Example 398]	–
80 to 90	< 0.75	–	–	< 0.01	< 0.75	C[C@H](O)CNC(=O)c1ccc(OC2COC2)c(NCC#Cc2cc3c(N[C@@H]4CCN(C)C[C@@H]4F)cccn3c2SC(F)(F)F)c1 [Example 400]	–
> 90	–	–	–	< 0.01	< 0.75	[2H]C([2H])([2H])Oc1cc(S(C)(=O)=O)ccc1NCC#Cc1cc2c(N[C@@H]3CCN(C(F)(F)F)C[C@@H]3F)cccn2c1SC(F)(F)F [Example 412]	–
–	–	< 0.75	> 90	< 0.01	–	[2H]C([2H])([2H])Oc1cc(S(C)(=O)=O)ccc1NCC#Cc1nc2c(N[C@@H]3CCN(C)C[C@@H]3C)cccn2c1SC(F)(F)F [Example 454]	–
–	–	< 0.75	> 90	< 0.01	–	[2H]C([2H])([2H])Oc1cc(S(C)(=O)=O)ccc1NCC#Cc1nn2c(N[C@@H]3CCN(C)C[C@@H]3F)cccc2c1SC(F)(F)F [Example 461]	–
–	–	< 0.75	> 90	< 0.01	–	CNC(=O)c1ccc(OCC2(O)CC2)c(NCC#Cc2cc3c(N[C@@H]4CCN(C)C[C@@H]4F)cccn3c2SC(F)(F)F)c1 [Example 467]	IC50 (H1299 p53 Y220C): < 0.75 µM
–	–	< 0.75	> 90	< 0.01	–	CNC(=O)c1ccc(NCC#Cc2cc3c(N[C@@H]4CCN(C)C[C@@H]4F)cccn3c2SC(F)(F)F)c(O[C@H]2C[C@@H](O)C2)c1 [Example 474]	–
–	–	< 0.75	> 90	< 0.01	–	[2H]C([2H])([2H])Oc1cc(S(C)(=O)=O)ccc1NCC#Cc1cc2c(N[C@@H]3CCN(C)C[C@@H]3F)cccn2c1SC(F)(F)F [Example 485]	–
–	–	< 0.75	> 90	< 0.01	–	[2H]C([2H])([2H])Oc1cc(S(C)(=O)=O)ccc1NCC#Cc1nc2c(N[C@@H]3CCN(C)C[C@@H]3F)nccn2c1SC(F)(F)F [Example 490]	–
–	–	< 0.75	> 90	< 0.01	–	CNC(=O)c1cc(NCC#Cc2cc3c(N[C@@H]4CCN(C)C[C@@H]4F)cccn3c2SC(F)(F)F)c2ncnn2c1 [Example 494]	IC50 (H1299 p53 Y220C): < 0.75 µM
–	–	< 0.75	> 90	< 0.01	–	[2H]C([2H])([2H])Oc1cc(C(=O)NC)ccc1NCC#Cc1nn2c(N[C@@H]3CCN(C)C[C@@H]3F)cccc2c1SC(F)(F)F [Example 500]	IC50 (H1299 p53 Y220C): < 0.75 µM
–	–	–	> 90	–	–	[2H]C([2H])([2H])N1CC[C@@H](Nc2cccn3c(SC(F)(F)F)c(C#CCNc4ccc(S(C)(=O)=O)cc4OC)cc23)[C@@H](F)C1 [Example 501]	IC50 (H1299 p53 Y220C): < 0.75 µM
–	–	–	> 90	–	–	[2H]C([2H])([2H])Oc1cc(C(=O)NC)ccc1NCC#Cc1nc2c(N[C@@H]3CCN(C)C[C@@H]3F)cccn2c1SC(F)(F)F [Example 505, 4-{[3-(8-{[(3S,4R)-3-fluoro-1-methylpiperidin-4-yl]amino}-3-[(trifluoromethyl)sulfanyl]imidazo[1,2-a]pyridin-2-yl)prop-2-yn-1-yl]amino}-3-(2H3)methoxy-N-methylbenzamide]	IC50 (H1299 p53 Y220C): < 0.75 µM
–	–	< 0.75	> 90	< 0.01	–	[2H]C([2H])([2H])Oc1ccc(C(=O)NC)cc1NCC#Cc1nc2c(N[C@@H]3CCN(C)C[C@@H]3F)cccn2c1SC(F)(F)F [Example 507]	IC50 (H1299 p53 Y220C): < 0.75 µM

SMILES	Emax (p53 Y220C; [2]) [%]	IC50 (H1299 p53 Y220C; CellTiter-Glo) [µM]	AC50 (p53 Y220C; [3]) [µM]	Emax (p53 Y220C; [4]) [%]	Kd [1] [µM]	AC50 (p53 Y220C; [7]) [µM]	further results
CNC(=O)c1ccc(O[C@H]2C[C@@H](O)C2)c(NCC#Cc2cc3c(N[C@@H]4CCN(C)C[C@@H]4F)cccn3c2SC(F)(F)F)c1 [Example 413, 3-{[3-(8-{[(3S,4R)-3-fluoro-1-methylpiperidin-4-yl]amino}-3-[(trifluoromethyl)sulfanyl]indolizin-2-yl)prop-2-yn-1-yl]amino}-N-methyl-4-[(1s,3s)-3-hydroxycyclobutoxy]benzamide]	> 90	< 0.75	–	–	< 0.01	< 0.75	–
